The nature of series [1]: Particle size and polydispersity index (PDI) of lipid nanoparticles, dynamic light scattering. The format is physicochemical. As to conditions: LNP preparation with the named cationic lipid; 90° scattering angle, 25° C. The source says:
(§1) The cationic lipids listed in Table 2 were each mixed with DSPC (AVT (Shanghai) Pharmaceutical Technology Co., Ltd.), cholesterol (AVT (Shanghai) Pharmaceutical Technology Co., Ltd.), and DMG-PEG2000 in a molar ratio of 49:10:39.5:1.5 and dissolved in ethanol to prepare ethanol lipid solutions. Using the ethanol injection method, the ethanol lipid solutions were quickly added to a citrate buffer (pH between 4 and 5), and vortexed for 30 seconds for later use. eGFP-mRNA (purchased from Shanghai BioHub Biotechnology Co., Ltd.), Fluc-mRNA (purchased from Shanghai BioHub Biotechnology Co., Ltd.), or Cy5 fluorescently labeled Leqvio (purchased from Sangon Biotech (Shanghai) Co., Ltd.) was diluted in a citrate buffer (pH between 4 and 5) to obtain an mRNA aqueous solution. A certain volume of the lipid solution and the mRNA aqueous solution were mixed to prepare liposomes at a total lipid-to-mRNA weight ratio of 15:1. The mixtures were sonicated at 25° C. for 15 minutes (ultrasonic frequency: 40 kHz, ultrasonic power: 800 W). The resulting liposomes were diluted 10-fold with PBS, followed by ultrafiltration using a 300 kDa ultrafiltration tube to remove ethanol. After adjusting the volume with PBS, LNP preparations encapsulating eGFP-mRNA or Fluc-mRNA were obtained, using cationic lipids, DSPC, cholesterol, and DMG-PEG2000 at a molar ratio of 49:10:39.5:1.5.
The particle size and polydispersity index (PDI) were measured using dynamic light scattering with a Malvern laser diffraction particle size analyzer.
10 μL of liposome solution was diluted to 1 mL with RNase-free deionized water and added to the sample cell. Each sample was measured three times. The measurement conditions were as follows: 90° scattering angle, 25° C.

The test system of series [2] is female BALB/C mice. The experiment in a line: Expression of delivered mRNA in different organs of mice (organ imaging). In kind it is in vivo. As to conditions: for Average radiation intensity of mouse organs: Heart / Average radiation intensity of mouse organs: Kidney / Average radiation intensity of mouse organs: Liver / Average radiation intensity of mouse organs: Lung / Average radiation intensity of mouse organs: Lymph / Average radiation intensity of mouse organs: Spleen: 6 hours after 5 μg Fluc-mRNA subcutaneously. The method, then:
LNP preparations containing 5 μg of Fluc-mRNA were subcutaneously injected into female BALB/C mice (4 to 6 weeks old, weighing 17 to 19 g). At specified time points after administration (6 h), the mice were intraperitoneally injected with fluorescent imaging substrates and allowed to move freely for 5 minutes. The average radiation intensity (corresponding to fluorescence intensity) of proteins expressed by the mRNA delivered by the LNP preparations in the mice in vivo was then detected using the IVIS Spectrum small-animal in vivo imaging system. After sampling, the mice were killed by cervical dislocation and dissected, and the internal organs: heart, liver, spleen, lung, kidney, and lymph of mice were accurately isolated. The average radiation intensity (corresponding to fluorescence intensity) of proteins expressed by the mRNA delivered by the LNP preparations in various organs of mice was then detected using the IVIS Spectrum small-animal in vivo imaging system.

Series [3] concerns 293T cells. The experiment in a line: Cell viability assay (CCK-8) with LNP preparations of Fluc-mRNA. The format is cell-based. As to conditions: LNP with 1.5 μg Fluc-mRNA, 24 hours, CCK-8. The method, then:
(§2) Cell recovery and passage: 293T cells were recovered and cultured in culture dishes. The cells were passaged until the required number of cells was obtained.
(§3) Seeding plates: The cells in culture dishes were digested and counted, then seeded in a 96-well plate at 10,000 cells per well and seeded in a 12-well plate at 150,000 cells per well. The cells were cultured overnight until cell adhesion.
as §1
(§4) Cell recovery and passage: The method was the same as described in Example 3.
(§5) Seeding plates: The method was the same as described in Example 3.
LNP preparations containing 1.5 μg of Fluc-mRNA (with the vector components of the LNP preparations of cationic lipids, DSPC, cholesterol, and DMG-PEG2000 in a molar ratio of 49:10:39.5:1.5, where the cationic lipids are those listed in Table 1) were added to the cell culture medium in a 96-well plate. After 24 hours of continued culture, 10 μL of CCK-8 solution was added to each well, and the culture plate was incubated in an incubator for 1 hour.

Series [4] deals with female BALB/C mice. The experiment in a line: Expression of delivered mRNA in mice in vivo (IVIS in vivo imaging). Particulars: 10 μg Fluc-mRNA via tail vein. The method, then: LNP preparations containing 10 μg of Fluc-mRNA were injected via the tail vein into female BALB/C mice (4 to 6 weeks old, weighing 17 to 19 g). At specified time points after administration (6 h, 24 h, 48 h, and 7 d), the mice were intraperitoneally injected with fluorescent imaging substrates and allowed to move freely for 5 minutes. The average radiation intensity (corresponding to fluorescence intensity) of proteins expressed by the mRNA delivered by the LNP preparations in the mice in vivo was then detected using the IVIS Spectrum small-animal in vivo imaging system.

Series [5] relates to 293T cells. Nature of the series: Fluorescence detection of Fluc-mRNA (transfection efficiency) of LNP preparations. The format is cell-based. As to conditions: LNP with 0.3 μg Fluc-mRNA, 96-well plate, 24 hours. The method, then: as §2, §3, §1, §4, §5
LNP preparations containing 0.3 μg of Fluc-mRNA (with the vector components of the LNP preparations of cationic lipids, DSPC, cholesterol, and DMG-PEG2000 in a molar ratio of 49:10:39.5:1.5, where the cationic lipids are those listed in Table 1) were added to the cell culture medium in a 96-well plate. After 24 hours of continued culture, the corresponding reagents were added according to the instructions in the Gaussia Luciferase Assay Kit. Fluorescence intensity in each well was detected using the IVIS fluorescence detection system. The transfection efficiency of LNP preparations prepared with a series of cationic lipid compounds designed in the present disclosure, as well as cationic lipids from the prior art, including SM-102, HHMA, MC3, compound 7, and I-1, is shown in Table 4.

Molecules are shown by their SMILES.

In series [1], `CCCCCCCCCCCOC(=O)CCCCCN(CCO)CCCCCCCC(=O)OC(CCCCCCCC)CCCCCCCC` [SM-102, reference compound] displayed a PDI of 13.5% and a Particle size of 145 nm. In addition, in the series with female BALB/C mice [2], the “Average radiation intensity of mouse organs: Heart” value (shortened to “Average radiation intensity … Heart”) amounted to 0, the “Average radiation intensity of mouse organs: Kidney” value was determined as 0, the “Average radiation intensity of mouse organs: Liver” value (shortened to “Average radiation intensity … Liver”) is on record as 24365 and the “Average radiation intensity of mouse organs: Lung” value (shortened to “Average radiation intensity … Lung”) is given as 0. In the series on female BALB/C mice [2], the “Average radiation intensity of mouse organs: Lymph” value (from here on “Average radiation intensity … Lymph”) was 0 and the “Average radiation intensity of mouse organs: Spleen” value is reported as 25547. In addition, the “Expression level in the liver, times that of YK-908” value with female BALB/C mice [2] (liver, 6 h, vs YK-908) was 17.12 times. Moreover, in the series with female BALB/C mice [2] (liver, 6 h, vs YK-909), the “Expression level in the liver, times that of YK-909” value is 2.67 times. In the series with female BALB/C mice [2] (liver, 6 h, vs YK-910), the “Expression level in the liver, times that of YK-910” value came to 2.13 times. The molecule further had a Cell viability in the series on 293T cells [3] of 82%. Further, in the series on female BALB/C mice [4] (6 h), the “Average radiation intensity, in vivo imaging” value amounted to 2144435. Moreover, the “Average radiation intensity, in vivo imaging” value in the series with female BALB/C mice [4] (24 h) is reported as 314533. For the same molecule, the “Average radiation intensity, in vivo imaging” value in the series on female BALB/C mice [4] (48 h) stood at 134554. Moreover, in the series on female BALB/C mice [4] (7 d), the “Average radiation intensity, in vivo imaging” value is on record as 9243. The “Relative light unit (RLU)” value in the series on 293T cells [5] was found to be 1428141 RLU.
For `CCCCCCCCCCOC(=O)CCCN1CCN(CCCCCC(=O)OCC(CCCCCCC)CCCCCCCC)CC1` (stereo not drawn) [YK-501, reference compound], in series [1], the PDI is recorded as 13.3% and the Particle size amounted to 144 nm. Also, in the series with female BALB/C mice [2], the “Average radiation intensity … Heart” value is reported as 0, the “Average radiation intensity of mouse organs: Kidney” value amounted to 0, the “Average radiation intensity … Liver” value came out at 3334 and the “Average radiation intensity … Lung” value was 0. For the same molecule, in the series with female BALB/C mice [2], the “Average radiation intensity … Lymph” value amounted to 0 and the “Average radiation intensity of mouse organs: Spleen” value is recorded as 14224. The same molecule registered a Cell viability with 293T cells [3] of 63%. Besides, the “Average radiation intensity, in vivo imaging” value with female BALB/C mice [4] (6 h) turned out to be 346241. Further, in the series with female BALB/C mice [4] (24 h), the “Average radiation intensity, in vivo imaging” value is listed as 174776. In the series with female BALB/C mice [4] (48 h), the “Average radiation intensity, in vivo imaging” value is on record as 55543. In the series on female BALB/C mice [4] (7 d), the “Average radiation intensity, in vivo imaging” value was determined as 5634. For the same molecule, the “Relative light unit (RLU)” value in the series on 293T cells [5] is listed as 46243 RLU.
In series [1], `CCCCCCCCCCCCSSCCNC(=O)CCN1CCN(CCCCCC(=O)OCCC(CCCCCC)CCCCCC)CC1` [YK-506, reference compound] yielded a PDI of 12.2% and a Particle size of 141 nm. In addition, in the series with female BALB/C mice [2], the “Average radiation intensity … Heart” value is reported as 0, the “Average radiation intensity of mouse organs: Kidney” value is 0, the “Average radiation intensity … Liver” value turned out to be 18913 and the “Average radiation intensity … Lung” value is on record as 0. In the series with female BALB/C mice [2], the “Average radiation intensity … Lymph” value stood at 0 and the “Average radiation intensity of mouse organs: Spleen” value turned out to be 71213. The molecule also showed a Cell viability in the series on 293T cells [3] of 90%. Moreover, the “Average radiation intensity, in vivo imaging” value in the series on female BALB/C mice [4] (6 h) stood at 1801233. In the series with female BALB/C mice [4] (24 h), the “Average radiation intensity, in vivo imaging” value was 257765. Moreover, the “Average radiation intensity, in vivo imaging” value in the series with female BALB/C mice [4] (48 h) amounted to 82221. For the same molecule, in the series on female BALB/C mice [4] (7 d), the “Average radiation intensity, in vivo imaging” value worked out at 34234. Also, in the series with 293T cells [5], the “Relative light unit (RLU)” value is 654224 RLU.

The record behind these values is US20250326708A1, “LONG-ACTING SPLEEN-TARGETING CATIONIC LIPID COMPOUND COMPRISING BENZENE RING STRUCTURE, COMPOSITION COMPRISING SAME, AND USE THEREOF” (Beijing Youcarekechuang Pharmaceutical Technology Co., Ltd., priority 2024, published 2025).
